According to patent publication US11572399B2, “Long-acting GIP peptide analogues” (University of Copenhagen, priority 2017, dated 2023):
Read-outs that look alike come from different tables or passages of the source. Peptide text beside a SMILES is read from it. * marks the point of attachment. C16 diacid = O=C(O)CCCCCCCCCCCCCCC(=O)*; Palmitoyl = CCCCCCCCCCCCCCCC(=O)*

What was measured:
[1] = molecular target: T1, human GIP receptor (Homo sapiens, UniProt P48546); experiment: 125I-human GIP competition binding assay, in the presence and absence of 2% HSA; settings: for Binding (+/−HSA) Fold: fold change +HSA/−HSA; for Fold change HSA (2%)/Casein (0.1%): IC50 (plus HSA)/IC50 (minus HSA);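 on all read-outs here: nonspecific binding taken as radioligand bound to untransfected cells, IC50 obtained from nonlinear regression fits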
T1 construct: host or cells: COS-7, transient transfection (calcium phosphate), cDNA in pCMV-Script
T1 sequence (P48546 22-466): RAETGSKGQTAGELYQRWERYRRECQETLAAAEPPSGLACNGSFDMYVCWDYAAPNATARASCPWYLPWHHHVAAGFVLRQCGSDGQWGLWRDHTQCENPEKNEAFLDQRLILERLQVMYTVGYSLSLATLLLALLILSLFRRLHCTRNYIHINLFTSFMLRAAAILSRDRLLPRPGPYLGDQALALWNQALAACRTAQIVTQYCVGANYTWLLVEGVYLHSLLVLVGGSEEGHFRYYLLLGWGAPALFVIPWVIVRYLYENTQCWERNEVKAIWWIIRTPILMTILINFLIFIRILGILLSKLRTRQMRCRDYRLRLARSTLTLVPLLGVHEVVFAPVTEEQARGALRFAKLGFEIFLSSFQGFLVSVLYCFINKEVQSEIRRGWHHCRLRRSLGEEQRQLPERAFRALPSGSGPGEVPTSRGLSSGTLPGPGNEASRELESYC

[2] = molecular target: T1, human GIP receptor; experiment: cAMP accumulation assay, agonism (ligand alone); type: cell-based; settings: Table 1; for Emax: COS-7, intrinsic cAMP activity
[3] = molecular target: T1, human GIP receptor; experiment: cAMP accumulation assay, antagonism of a GIP-mediated cAMP response (50-80% of max); type: cell-based; settings: for Fold change of IC50 versus GIP(5-30)NH2: fold change of IC50 from GIP(5-30)NH2
Method: The day after, the cells were washed twice with Hepes buffered saline (HBS) buffer and incubated with HBS and 1 mM 3-isobutyl-1-methylxanthine (IBMX) for 30 min at 37° C. […] The HitHunter™ cAMP XS assay (DiscoveRx) was carried out according to the manufacturer's instructions.

[4] = transiently transfected COS-7 cells, Table 1 and text, read-out: cAMP antagonism nM (IC50, antagonistic potency)
[5] = binding in 0.1% casein (absence of HSA), log value, read-out: logIC50 0.1% casein (converted)
[6] = heterologous competition binding, transiently transfected COS-7 cells expressing the human GIP receptor, read-out: Binding

SMILES	Emax ([2]; COS-7 cells) [%]	IC50 [3, 4] [nM]	Ki ([1]; absence of HSA) [nM]	Binding (+/−HSA) Fold [1]	Fold change of IC50 versus GIP(5-30)NH2 [3]	Fold change HSA (2%)/Casein (0.1%) [1]	IC50 [1, 5] [nM]	IC50 [1, 6] [nM]	Ability to antagonize the GIP-mediated cAMP response (in words) [3]	further results
CC[C@H](C)[C@H](NC(=O)[C@H](CO)NC(=O)[C@H](Cc1ccc(O)cc1)NC(=O)[C@H](CC(=O)O)NC(=O)[C@H](CO)NC(=O)[C@@H](NC(=O)[C@H](Cc1ccccc1)NC(=O)[C@@H](NC(=O)CNC(=O)[C@@H](N)CCC(=O)O)[C@@H](C)O)[C@@H](C)CC)C(=O)N[C@@H](C)C(=O)N[C@@H](CCSC)C(=O)N[C@@H](CC(=O)O)C(=O)N[C@@H](CCCCN)C(=O)N[C@H](C(=O)N[C@@H](CCCCNC(=O)CCCCCCCCCCCCCCC(=O)O)C(=O)N[C@@H](CCC(N)=O)C(=O)N[C@@H](CCC(N)=O)C(=O)N[C@@H](CC(=O)O)C(=O)N[C@@H](Cc1ccccc1)C(=O)N[C@H](C(=O)N[C@@H](CC(N)=O)C(=O)N[C@@H](Cc1c[nH]c2ccccc12)C(=O)N[C@@H](CC(C)C)C(=O)N[C@@H](CC(C)C)C(=O)N[C@@H](C)C(=O)N[C@@H](CCC(N)=O)C(=O)N[C@@H](CCCCN)C(N)=O)C(C)C)[C@@H](C)CC [AT158, [hGIP(3-30)NH2[H18K]-C16diacid/18]] (H-EGTFISDYSIAMDKIK(C16 diacid)QQDFVNWLLAQK-NH2; N-terminus assumed)	6	5								IC50 ([1]; 0.1% casein, no HSA, Table 3b, read-out: Binding logIC50 0.1% casein (converted)): 7.9 nM; IC50 ([1]; 2% HSA, Table 3b, read-out: Binding logIC50 2% HSA (converted)): 16 nM; IC50 ([1]; Table 3b, initial data, read-out: Binding IC50): 7.9 nM; Binding fold (paired) ([1]; fold decrease in affinity compared to GIP(3-30)NH2, Table 3b): 1 fold; Fold change in affinity, IC50 (plus HSA)/IC50 (minus HSA) ([1]; presence vs absence of 2% HSA, proxy for albumin binding): 2.0 fold; cAMP - antagonisme fold (paired) ([3]; fold vs GIP(3-30)NH2, Table 3b): 0.1 fold
CC[C@H](C)[C@H](NC(=O)[C@H](CO)NC(=O)[C@H](Cc1ccc(O)cc1)NC(=O)[C@H](CC(=O)O)NC(=O)[C@H](CO)NC(=O)[C@@H](NC(=O)[C@H](Cc1ccccc1)NC(=O)[C@@H](N)[C@@H](C)O)[C@@H](C)CC)C(=O)N[C@@H](C)C(=O)N[C@@H](CCSC)C(=O)N[C@@H](CC(=O)O)C(=O)N[C@@H](CCCCN)C(=O)N[C@H](C(=O)N[C@@H](CCCCNC(=O)CCCCCCCCCCCCCCC(=O)O)C(=O)N[C@@H](CCC(N)=O)C(=O)N[C@@H](CCC(N)=O)C(=O)N[C@@H](CC(=O)O)C(=O)N[C@@H](Cc1ccccc1)C(=O)N[C@H](C(=O)N[C@@H](CC(N)=O)C(=O)N[C@@H](Cc1c[nH]c2ccccc12)C(=O)N[C@@H](CC(C)C)C(=O)N[C@@H](CC(C)C)C(=O)N[C@@H](C)C(=O)N[C@@H](CCC(N)=O)C(=O)N[C@@H](CCCCN)C(N)=O)C(C)C)[C@@H](C)CC [AT156, [hGIP(5-30)NH2[H18K]-C16diacid/18]] (H-TFISDYSIAMDKIK(C16 diacid)QQDFVNWLLAQK-NH2; N-terminus assumed)	12	12	5	5.8	0.9					Ki ([1]; presence of 2% HSA): 29 nM; EC50 ([2]; COS-7 cells, read-out: cAMP agonism nM (EC50)): 2 nM; IC50 ([3]; antagonism of GIP-mediated cAMP response, COS-7 cells, read-out: cAMP accumulation IC50): 24 nM
CCCCCCCCCCCCCCCC(=O)N[C@H](C(=O)N[C@@H](Cc1ccccc1)C(=O)N[C@H](C(=O)N[C@@H](CO)C(=O)N[C@@H](CC(=O)O)C(=O)N[C@@H](Cc1ccc(O)cc1)C(=O)N[C@@H](CO)C(=O)N[C@H](C(=O)N[C@@H](C)C(=O)N[C@@H](CCSC)C(=O)N[C@@H](CC(=O)O)C(=O)N[C@@H](CCCNC(=N)N)C(=O)N[C@H](C(=O)N[C@@H](Cc1c[nH]cn1)C(=O)N[C@@H](CCC(N)=O)C(=O)N[C@@H](CCC(N)=O)C(=O)N[C@@H](CC(=O)O)C(=O)N[C@@H](Cc1ccccc1)C(=O)N[C@H](C(=O)N[C@@H](CC(N)=O)C(=O)N[C@@H](Cc1c[nH]c2ccccc12)C(=O)N[C@@H](CC(C)C)C(=O)N[C@@H](CC(C)C)C(=O)N[C@@H](C)C(=O)N[C@@H](CCC(N)=O)C(=O)N[C@@H](CCCNC(=N)N)C(N)=O)C(C)C)[C@@H](C)CC)[C@@H](C)CC)[C@@H](C)CC)[C@@H](C)O [AT135, [hGIP(5-30)NH2[K16R; K30R]-C16/5]] (Palmitoyl-TFISDYSIAMDRIHQQDFVNWLLAQR-NH2)	0					0.2	6310	5940	failed to antagonize	
CC[C@H](C)[C@H](NC(=O)[C@H](CO)NC(=O)[C@H](Cc1ccc(O)cc1)NC(=O)[C@H](CC(=O)O)NC(=O)[C@H](CO)NC(=O)[C@@H](NC(=O)[C@H](Cc1ccccc1)NC(=O)[C@@H](N)[C@@H](C)O)[C@@H](C)CC)C(=O)N[C@@H](C)C(=O)N[C@@H](CCSC)C(=O)N[C@@H](CCCCNC(=O)CCCCCCCCCCCCCCC(=O)O)C(=O)N[C@@H](CCCCN)C(=O)N[C@H](C(=O)N[C@@H](Cc1c[nH]cn1)C(=O)N[C@@H](CCC(N)=O)C(=O)N[C@@H](CCC(N)=O)C(=O)N[C@@H](CC(=O)O)C(=O)N[C@@H](Cc1ccccc1)C(=O)N[C@H](C(=O)N[C@@H](CC(N)=O)C(=O)N[C@@H](Cc1c[nH]c2ccccc12)C(=O)N[C@@H](CC(C)C)C(=O)N[C@@H](CC(C)C)C(=O)N[C@@H](C)C(=O)N[C@@H](CCC(N)=O)C(=O)N[C@@H](CCCCN)C(N)=O)C(C)C)[C@@H](C)CC [AT177, [hGIP(5-30)NH2[D15K]-C16diacid/15]] (H-TFISDYSIAMK(C16 diacid)KIHQQDFVNWLLAQK-NH2; N-terminus assumed)	30	59	117	3.8	1.3	3.8		134		EC50 ([2]; given as log EC50 (negative sign), read-out: cAMP agonism EC50 (log) (converted)): 100 nM
CCCCCCCCCCCC(=O)NCCCC[C@H](NC(=O)[C@H](CC(=O)O)NC(=O)[C@H](CCSC)NC(=O)[C@H](C)NC(=O)[C@@H](NC(=O)[C@H](CO)NC(=O)[C@H](Cc1ccc(O)cc1)NC(=O)[C@H](CC(=O)O)NC(=O)[C@H](CO)NC(=O)[C@@H](NC(=O)[C@H](Cc1ccccc1)NC(=O)[C@@H](N)[C@@H](C)O)[C@@H](C)CC)[C@@H](C)CC)C(=O)N[C@H](C(=O)N[C@@H](Cc1c[nH]cn1)C(=O)N[C@@H](CCC(N)=O)C(=O)N[C@@H](CCC(N)=O)C(=O)N[C@@H](CC(=O)O)C(=O)N[C@@H](Cc1ccccc1)C(=O)N[C@H](C(=O)N[C@@H](CC(N)=O)C(=O)N[C@@H](Cc1c[nH]c2ccccc12)C(=O)N[C@@H](CC(C)C)C(=O)N[C@@H](CC(C)C)C(=O)N[C@@H](C)C(=O)N[C@@H](CCC(N)=O)C(=O)N[C@@H](CCCCN)C(N)=O)C(C)C)[C@@H](C)CC [AT119, [hGIP(5-30)NH2—C12/16]]	0	26				7.2	398			
CC[C@H](C)[C@H](NC(=O)[C@H](CO)NC(=O)[C@H](Cc1ccc(O)cc1)NC(=O)[C@H](CC(=O)O)NC(=O)[C@H](CO)NC(=O)[C@@H](NC(=O)[C@H](Cc1ccccc1)NC(=O)[C@@H](NC(=O)CCCCCCCCCCCCCCCCC(=O)O)[C@@H](C)O)[C@@H](C)CC)C(=O)N[C@@H](C)C(=O)N[C@@H](CCSC)C(=O)N[C@@H](CC(=O)O)C(=O)N[C@@H](CCCCN)C(=O)N[C@H](C(=O)N[C@@H](Cc1c[nH]cn1)C(=O)N[C@@H](CCC(N)=O)C(=O)N[C@@H](CCC(N)=O)C(=O)N[C@@H](CC(=O)O)C(=O)N[C@@H](Cc1ccccc1)C(=O)N[C@H](C(=O)N[C@@H](CC(N)=O)C(=O)N[C@@H](Cc1c[nH]c2ccccc12)C(=O)N[C@@H](CC(C)C)C(=O)N[C@@H](CC(C)C)C(=O)N[C@@H](C)C(=O)N[C@@H](CCC(N)=O)C(=O)N[C@@H](CCCCN)C(N)=O)C(C)C)[C@@H](C)CC [AT138, [hGIP(5-30)NH2—C18diacid/5]]	0					3.8	2510	2640	failed to antagonize	
